Source: ChEMBL document CHEMBL3885881, “DrugMatrix”

Organism: Rattus norvegicus
Assay: DrugMatrix - Regimen: Daily Repeat
Type: toxicity, organism-based, Sprague-Dawley
Set-up: regimen Daily Repeat, gender Male, age 6-8 weeks
Conditions: in vivo, po, 0 mg/kg, route oral GAVAGE, dose level Control, […]; for ABSOLUTE BASOPHIL / ABSOLUTE EOSINOPHIL / ABSOLUTE LYMPHOCYTE / ABSOLUTE MONOCYTE / ABSOLUTE SEGMENTED NEUTROPHIL / BASOPHIL / EOSINOPHIL / ERYTHROCYTE COUNT / HEMATOCRIT / HEMOGLOBIN / LEUKOCYTE COUNT / LYMPHOCYTE / MEAN CORPUSCULAR HEMOGLOBIN / MEAN CORPUSCULAR HEMOGLOBIN CONCENTRATION / MEAN CORPUSCULAR VOLUME / MONOCYTE / NEUTROPHIL / NUCLEATED RED BLOOD CELLS / PLATELET COUNT: tissue Blood; for ALANINE AMINOTRANSFERASE / ALBUMIN / ALKALINE PHOSPHATASE / ASPARTATE AMINOTRANSFERASE / BLOOD UREA NITROGEN / CARBON DIOXIDE / CHLORIDE / CHOLESTEROL / CREATINE PHOSPHOKINASE / CREATININE / GLUCOSE / LACTATE DEHYDROGENASE / LIPASE / PHOSPHORUS / POTASSIUM / SODIUM / TOTAL BILIRUBIN / TOTAL PROTEIN / URIC ACID: tissue Plasma

For `OC(Cn1cncn1)(Cn1cncn1)c1ccc(F)cc1F` [FLUCONAZOLE], the “ABSOLUTE BASOPHIL” value (72 h, time 3 day) was 0 CELLS/uL, the “ABSOLUTE EOSINOPHIL” value (72 h, time 3 day) was 104.17 CELLS/uL and the “ABSOLUTE LYMPHOCYTE” value (72 h, time 3 day) was 14547 CELLS/uL. The “ABSOLUTE MONOCYTE” value (72 h, time 3 day) was 292 CELLS/uL, the “ABSOLUTE SEGMENTED NEUTROPHIL” value (72 h, time 3 day) was 1640.17 CELLS/uL and the BASOPHIL (72 h, time 3 day) was 0%. The EOSINOPHIL (72 h, time 3 day) was 0.67%, the “ERYTHROCYTE COUNT” value (72 h, time 3 day) was 5.35 x10E6/uL and the HEMATOCRIT (72 h, time 3 day) was 33.67%. For the same compound, the HEMOGLOBIN (72 h, time 3 day) was 13.38 G/DL, the “LEUKOCYTE COUNT” value (72 h, time 3 day) was 16.58 x10E3/uL and the LYMPHOCYTE (72 h, time 3 day) was 87.5%. The “MEAN CORPUSCULAR HEMOGLOBIN” value (72 h, time 3 day) was 25.05 pg, the “MEAN CORPUSCULAR HEMOGLOBIN CONCENTRATION” value (72 h, time 3 day) was 39.78 G/DL and the “MEAN CORPUSCULAR VOLUME” value (72 h, time 3 day) was 62.97 fL. The MONOCYTE (72 h, time 3 day) was 1.83%, the NEUTROPHIL (72 h, time 3 day) was 10% and the “NUCLEATED RED BLOOD CELLS” value (72 h, time 3 day) was 0 /100WBC. For the same compound, the “PLATELET COUNT” value (72 h, time 3 day) was 1274.5 x10E3/uL, the “ALANINE AMINOTRANSFERASE” value (72 h, time 3 day) was 76.83 u/L and the ALBUMIN (72 h, time 3 day) was 3.97 G/DL. The “ALKALINE PHOSPHATASE” value (72 h, time 3 day) was 347 u/L, the “ASPARTATE AMINOTRANSFERASE” value (72 h, time 3 day) was 97.17 u/L and the “BLOOD UREA NITROGEN” value (72 h, time 3 day) was 14.33 mg/dL. The “CARBON DIOXIDE” value (72 h, time 3 day) was 25.5 mmol/L, the CHLORIDE (72 h, time 3 day) was 100.33 MEQ/L and the CHOLESTEROL (72 h, time 3 day) was 68.67 mg/dL. The “CREATINE PHOSPHOKINASE” value (72 h, time 3 day) was 659.17 u/L, the CREATININE (72 h, time 3 day) was 0.32 mg/dL and the GLUCOSE (72 h, time 3 day) was 160.67 mg/dL. The “LACTATE DEHYDROGENASE” value (72 h, time 3 day) was 271.5 u/L, the LIPASE (72 h, time 3 day) was 11.67 u/L and the PHOSPHORUS (72 h, time 3 day) was 10.65 mg/dL. The POTASSIUM (72 h, time 3 day) was 5.95 MEQ/L, the SODIUM (72 h, time 3 day) was 139.65 MEQ/L and the “TOTAL BILIRUBIN” value (72 h, time 3 day) was 0.2 mg/dL. The “TOTAL PROTEIN” value (72 h, time 3 day) was 5.72 G/DL, the “URIC ACID” value (72 h, time 3 day) was 1.37 mg/dL and the “ABSOLUTE BASOPHIL” value (120 h, time 5 day) was 0 CELLS/uL. For the same compound, the “ABSOLUTE EOSINOPHIL” value (120 h, time 5 day) was 331.5 CELLS/uL, the “ABSOLUTE LYMPHOCYTE” value (120 h, time 5 day) was 15021.67 CELLS/uL and the “ABSOLUTE MONOCYTE” value (120 h, time 5 day) was 376.5 CELLS/uL. For the same compound, the “ABSOLUTE SEGMENTED NEUTROPHIL” value (120 h, time 5 day) was 3070.33 CELLS/uL, the BASOPHIL (120 h, time 5 day) was 0% and the EOSINOPHIL (120 h, time 5 day) was 1.83%. The “ERYTHROCYTE COUNT” value (120 h, time 5 day) was 5.24 x10E6/uL, the HEMATOCRIT (120 h, time 5 day) was 33.22% and the HEMOGLOBIN (120 h, time 5 day) was 13.2 G/DL. The “LEUKOCYTE COUNT” value (120 h, time 5 day) was 18.8 x10E3/uL, the LYMPHOCYTE (120 h, time 5 day) was 79.67% and the “MEAN CORPUSCULAR HEMOGLOBIN” value (120 h, time 5 day) was 25.17 pg. For the same compound, the “MEAN CORPUSCULAR HEMOGLOBIN CONCENTRATION” value (120 h, time 5 day) was 39.73 G/DL, the “MEAN CORPUSCULAR VOLUME” value (120 h, time 5 day) was 63.38 fL and the MONOCYTE (120 h, time 5 day) was 2%. For the same compound, the NEUTROPHIL (120 h, time 5 day) was 16.5%, the “NUCLEATED RED BLOOD CELLS” value (120 h, time 5 day) was 0 /100WBC and the “PLATELET COUNT” value (120 h, time 5 day) was 1142.67 x10E3/uL. The “ALANINE AMINOTRANSFERASE” value (120 h, time 5 day) was 52.5 u/L, the ALBUMIN (120 h, time 5 day) was 3.9 G/DL and the “ALKALINE PHOSPHATASE” value (120 h, time 5 day) was 284.5 u/L. The “ASPARTATE AMINOTRANSFERASE” value (120 h, time 5 day) was 81.33 u/L, the “BLOOD UREA NITROGEN” value (120 h, time 5 day) was 16 mg/dL and the “CARBON DIOXIDE” value (120 h, time 5 day) was 25.33 mmol/L. The CHLORIDE (120 h, time 5 day) was 99.5 MEQ/L, the CHOLESTEROL (120 h, time 5 day) was 74.83 mg/dL and the “CREATINE PHOSPHOKINASE” value (120 h, time 5 day) was 448.33 u/L. For the same compound, the CREATININE (120 h, time 5 day) was 0.37 mg/dL, the GLUCOSE (120 h, time 5 day) was 164.17 mg/dL and the “LACTATE DEHYDROGENASE” value (120 h, time 5 day) was 290.67 u/L. For the same compound, the LIPASE (120 h, time 5 day) was 6.83 u/L, the PHOSPHORUS (120 h, time 5 day) was 11.5 mg/dL and the POTASSIUM (120 h, time 5 day) was 6.28 MEQ/L. For the same compound, the SODIUM (120 h, time 5 day) was 139.5 MEQ/L, the “TOTAL BILIRUBIN” value (120 h, time 5 day) was 0.13 mg/dL and the “TOTAL PROTEIN” value (120 h, time 5 day) was 5.55 G/DL. For the same compound, the “URIC ACID” value (120 h, time 5 day) was 1.12 mg/dL.
